Reference: patent US20040138301A1, “Chemical uncouplers for the treatment of obesity” (priority 2002, published 2004)
Like-named read-outs stand apart in the source and are kept apart here.

Test system: FSK-4 cells
Experiment: Assay (IV): Glucose utilisation in FSK-4 cells
Type: cell-based
Settings: for EC50: read-out: FSK4 EC50; for Emax: read-out: FSK4 Emax (% of FCCP)
Procedure: Assay (IV): Glucose Utilisation in FSK-4 Cells
The assay measures indirectly the activity of the respiratory chain in FSK-4 cells by using D-(6-^3H(N))-glucose. The ^3H-proton will first be released in the TCA cyclus and transported to the respiratory chain where it will be incorporated into water. The water is thereafter separated from the D-(6-^3H(N))-glucose by evaporation. Finally, the radioactivity in the water is determined using a Topcounter.
FSK-4 cells obtained from ATCC (Maryland, USA), are cultured in growth medium (McCoy's medium with the following addition 100 units/ml penicillin and streptomycin and 10% FCS (fetal calf serum)) at 37° C. and 5% CO2. All media are obtained by Gibco (Life Technologies, Maryland, USA) where not otherwise mentioned.
At day zero the cells are harvested using trypsin-EDTA and washed in assay medium (MEM medium with the following addition 1× non-essential amino acids (M7145, 2 mM glutamin, 100 units/ml pencillin and streptomycin, 0.0075% sodium bicarbonate, 1 mM sodium pyrovate and 2% horse serum) using centrifugation. The cells are plated into single StripPlates wells (Corning B.V.Life Sciences, The Netherlands) that are placed into 24-well plates (Corning B.V.Life Sciences, The Netherlands) with a concentration of 1,5×10^4 cells/100 μl assay medium/well. The cells are then incubated at 37° C. and 5% CO2 overnight.
The next day the compounds to be tested are diluted to different concentrations in DMSO (Sigma, Missouri, USA) to 100 times final concentration. They are then diluted to a final concentration in assay medium containing 10 μCi/ml D-(6-^3H(N))-glucose (PerkinElmer Life Sciences Inc., Boston, USA). The medium is removed from the cells and 200 μl of the compound dilutions are added in duplicates. The cells are then incubated for another 24 hours at 37° C. and 5% CO2. Finally the cells are lysed by adding 50 μl 10% TCA (tri-chloroacetatic acid). 300 μl of sterile water is then added to the 24-wells that surrounds the StripPlate wells. The plate is sealed with Top-seal-tape (Packard, PerkinElmer Life Sciences Inc., Boston, USA) and the plate is incubated in a heating cupboard at 50° C. to equilibrium the radioactive water formed in the respiratory chain into the water in the 24-well plate by evaporate. The plates incubate for 8 hours where the heating cupboard is turned off. The top seal is removed when the samples have reached room temperature. One ml scintillation liquid (Packard Microscient, PerkinElmer Life Sciences Inc., Boston, USA) is added to all the samples and the radioactivity is determined using a Topcounter (Packard, PerkinElmer Life Sciences Inc., Boston, USA). Non-specific activity is determined by evaporating 200 μl of the dilution medium containing the D-(6-^3H(N))-glucose into 300 μl sterile water, and total radioactivity is determined by counting 5 μl assay medium with 10 μCi/ml D-(6-^3H(N))-glucose.
All calculations are done using GraphPad Prism 3.0 (GraphPad software, Inc.) From concentration-response curves the half maximal concentration (EC50) and maximal efficacy (Emax) are calculated using equation 1.
Y=Bottom+(Top−Bottom)/(1+10^((LogEc50-X)*slope))
X is the logarithm of the molar concentration of the test compound.
Y is the degree of stimulation caused by the compound measured as percentage of the basal stimulation.
The calculated EC50 value is then used to determine the concentrations used in a study where the Hill slope is calculated.
From the double logarithmic plot of the increase in glucose utilisation and the compound concentration the Hill slope is calculated accordingly to equation 2.
It is presumed, that the maximal increase in the glucose utilisation (as measured in the FSK-4 glucose utilisation assay) is limited by the capacity of the metabolism.

[1] = FSK-4 cells, glucose utilisation, 24 hours incubation
[2] = FSK-4 cells, maximal efficacy relative to FCCP

EC50 [1] [nM] | SMILES | Emax [2] [%] | EC50 (24 h) [nM] | Emax [%]
5000 | N#CC(C#N)=Cc1c[nH]c2ccc([N+](=O)[O-])cc12 [Example 35, 2-(5-Nitro-1H-Indol-3-Ylmethylene)-Malononitrile] | 50 | – | –
– | Cc1[nH]c2ccc([N+](=O)[O-])cc2c1C=C(C#N)C#N [Example 36, 2-(2-Methyl-5-Nitro-1H-Indol-3-Ylmethylene)-Malononitrile] | – | 6350 | 76
1100 | CC(C)(C)c1cc(/C=C(\C#N)C(=O)Nc2ccc(Cl)cc2)cc(C(C)(C)C)c1O [Example 83, N-(4-Chloro-Phenyl)-2-Cyano-3-(3,5-Di-Tert-Butyl-4-Hydroxy-Phenyl)-Acrylamide] | 120 | – | –
1400 | CC(C)(C)c1cc(/C=C(\C#N)S(C)(=O)=O)cc(C(C)(C)C)c1O [Example 84, (E)-3-(3,5-Di-Tert-Butyl-4-Hydroxy-Phenyl)-2-Methanesulfonyl-Acrylonitrile] | – | – | –
800 | CC(C)(C)c1cc(/C=C(\C#N)S(=O)(=O)c2ccc(Cl)cc2)cc(C(C)(C)C)c1O [Example 85, (E)-2-(4-Chloro-Benzenesulfonyl)-3-(3,5-Di-Tert-Butyl-4-Hydroxy-Phenyl)-Acrylonitrile] | – | – | –
1000 | CC(C)(C)c1cc(/C=C(\C#N)S(=O)(=O)c2ccc(F)cc2)cc(C(C)(C)C)c1O [Example 86, (E)-3-(3,5-Di-Tert-Butyl-4-Hydroxy-Phenyl)-2-(4-Fluoro-Benzenesulfonyl)-Acrylonitrile] | – | – | –
700 | CC(C)(C)c1cc(/C=C(\C#N)S(=O)(=O)c2ccccc2)cc(C(C)(C)C)c1O [Example 87, (E)-2-Benzenesulfonyl-3-(3,5-Di-Tert-Butyl-4-Hydroxy-Phenyl)-Acrylonitrile] | – | – | –
500 | CC(C)S(=O)(=O)/C(C#N)=C/c1cc(C(C)(C)C)c(O)c(C(C)(C)C)c1 [Example 88, (E)-3-(3,5-Di-Tert-Butyl-4-Hydroxy-Phenyl)-2-(Propane-2-Sulfonyl)-Acrylonitrile] | – | – | –
500 | CC(C)(C)c1cc(/C=C(\C#N)S(=O)(=O)c2cc(Cl)ccc2Cl)cc(C(C)(C)C)c1O [Example 89, 3-(3,5-Di-Tert-Butyl-4-Hydroxy-Phenyl)-2-(2,5-Dichloro-Benzenesulfonyl)-Acrylonitrile] | – | – | –
600 | CC(C)(C)c1cc(/C=C(\C#N)S(=O)(=O)c2ccc(Cl)cc2Cl)cc(C(C)(C)C)c1O [Example 90, 3-(3,5-Di-Tert-Butyl-4-Hydroxy-Phenyl)-2-(2,4-Dichloro-Benzenesulfonyl)-Acrylonitrile] | – | – | –
3800 | CCCCCCS(=O)(=O)/C(C#N)=C/c1cc(C(C)(C)C)c(O)c(C(C)(C)C)c1 [Example 91, 3-(3,5-Di-Tert-Butyl-4-Hydroxy-Phenyl)-2-(Hexane-1-Sulfonyl)-Acrylonitrile] | – | – | –
1000 | CC(C)(C)c1cc(/C=C(\C#N)S(=O)(=O)c2ccc(Br)cc2)cc(C(C)(C)C)c1O [Example 92, 2-(4-Bromo-Benzenesulfonyl)-3-(3,5-Di-Tert-Butyl-4-Hydroxy-Phenyl)-Acrylonitrile] | – | – | –
100 | CC(C)(C)c1cc(/C=C(\C#N)S(=O)(=O)c2cccc(Br)c2)cc(C(C)(C)C)c1O [Example 93, 2-(3-Bromo-Benzenesulfonyl)-3-(3,5-Di-Tert-Butyl-4-Hydroxy-Phenyl)-Acrylonitrile] | – | – | –
100 | CC(C)(C)c1cc(Br)cc(C(=O)Nc2ccc(C#N)cc2Cl)c1O [Example 94, 5-Bromo-3-Tert-Butyl-N-(2-Chloro-4-Cyanophenyl)-2-Hydroxybenzamide] | 90 | – | –
20000 | Cc1c(Br)cc(C(C)(C)C)c(O)c1C(=O)Nc1ccccc1C(F)(F)F [Example 96, 3-Bromo-5-Tert-Butyl-6-Hydroxy-2-Methyl-N-(2-Trifluoromethylphenyl)Benzamide] | 40 | – | –
1500 | N#CC(C#N)=Cc1c(Br)[nH]c2ccccc12 [Example 97, 2-(2-Bromo-1H-Indol-3-Ylmethylene)Malononitrile] | 55 | – | –
6600 | Cc1[nH]c2c(Br)cccc2c1C=C(C#N)C#N [Example 98, 2-(7-Bromo-2-Methyl-1H-Indol-3-Ylmethylene)Malononitrile] | 105 | – | –
1700 | Cc1[nH]c2ccc(Br)cc2c1C=C(C#N)C#N [Example 99, 2-(5-Bromo-2-Methyl-1H-Indol-3-Ylmethylene)Malononitrile] | 40 | – | –
